Experimental findings from patent publication US20120095062A1, “TRICYCLIC COMPOUNDS, COMPOSITIONS, AND METHODS” (Pfizer Inc., priority 2007, published 2012) are described below.

Like-named read-outs stand apart in the source and are kept apart here.

Data set [1] concerns Mouse Collagen-induced arthritis. Nature of the data set: Therapeutic mouse collagen-induced arthritis (mCIA) model. The conditions noted are these: mice, dosing day 34 through day 49, read-out: Therapeutic mCIA (ED50 dose). The data set is classed as in vivo. From the text: Mouse Collagen-induced arthritis is a commonly used chronic, preclinical model of rheumatoid arthritis in which joint swelling and bone destruction occur following immunization with type II collagen. Reduction of disease incidence and severity has been shown previously to be predictive of disease-modification and signs and symptoms mitigation, respectively, in a clinical setting.
In the therapeutic mCIA model, induction of disease incidence and severity was synchronized via LPS stimulation. Male […] mice were immunized with 100 ug of bovine type II collagen (bCII) on day 0. All mice received an intraperitoneal injection of 20 μg of LPS on day 28 and disease was allowed to develop through day 34. At day 34, all mice had disease (incidence=100%) with an average severity score of seven. Dosing of compounds was initiated in the therapeutic mode on day 34 and continued through day 49. Different treatments were compared by measuring the decrease in incidence (i.e., resolution of disease) and the decrease in severity of paw swelling over time.

For data set [2], the system named is IL-6, Human A549 lung epithelial cells. In words: IL-6 inhibition in IL-1β-stimulated A549 cells. The conditions noted are these: for inhibition: A549, A549 cells, Prednisolone (1 μM) = 100% inhibition control. The data set is classed as cell-based. The procedure:
Human A549 lung epithelial cells (American Type Culture Collection, Rockville, Md.) were cultured in Kaighn's F-12K medium with penicillin-streptomycin (10 U/mL) and 10% heat-inactivated fetal bovine serum (all from Invitrogen, Grand Island, N.Y.). A549 cells were plated at a density of 30,000 cells/well in 96-well plates and incubated overnight at 37° C. and with 5% CO2. The cells were serum-starved by replacing the growth medium with serum-free Kaighn's F-12K medium with penicillin-streptomycin (10 U/mL) and, again, incubating overnight at 37° C. and with 5% CO2. On the third day, the medium was replaced with fresh serum-free medium and the cells were incubated with or without compound (vehicle was DMSO at 0.1% maximum concentration) for approximately 1 hour and then stimulated with 1 ng/mL recombinant human IL-1β (R&D Systems, Minneapolis, Minn.) for 20 hours at 37° C. and with 5% CO2. Cell supernatants were collected for determination of IL-6 levels using MSD (Meso Scale Discovery, Gaithersburg, Md.) 96-well Single Spot plates as per the manufacturer's instructions. Plates were read with an MSD Sector Imager 6000. […] Vehicle was used to define the 0% inhibition control. Percent inhibition for each compound concentration, relative to these controls, was calculated using Excel (Microsoft, Redmond, Wash.). IC50 values were generated using GraFit 5.0 data analysis software (Erithacus Software Ltd., Surrey, UK).

In a further data set the test system is LPS-induced serum TNFα. Nature of the data set: LPS-induced serum TNFα suppression, 28-day repeat dose mouse model. In kind it is in vivo. The note with it: 672 h, mice, oral gavage 28 days.
The next data set has as its system Serum osteocalcin. Nature of the data set: Serum osteocalcin suppression, 28-day repeat dose mouse model. In kind it is in vivo, mice. The note with it: for ED50: Mus musculus, 672 h, mice, oral gavage 28 days, serum osteocalcin.
Data set [3] can be described thus: Plasma exposure (AUC) in the mouse. The data set is classed as in vivo.
For data set [4], the system named is Cortical bone formation rate. In words: Cortical bone histomorphometry, bone formation rate (BFR). The conditions noted are these: 28-day repeat dose model; the 11th table. In kind it is in vivo, mice. The procedure: Sigma-Aldrich, St. […] Calcein incorporates into the bone mineral and allows measurement of bone formation rate. Calcein was dissolved in 2% sodium bicarbonate. During the tissue harvest, the left tibiae were excised and cleaned for cortical histomorphometry measurements. After all skin and muscle were removed, tibiae were placed in 70% ethanol (4° C.) in the dark for a minimum of 24 hours. Ground transverse sections were used for histomorphometric analysis of cortical bone. Bones were sectioned using a low-speed saw (lsomet, Buehler, Lake Bluff, Ill.) equipped with a diamond wafer blade. The end of each tibia was removed proximal to tibia-fibula synostosis and a […] cross-section was cut. Using a roughened glass plate and a cork, sections were ground to […] until transparent and all labels were distinguishable under a fluorescent microscope. […] Sigma-Aldrich, St. Louis, Mo.). Sections were mounted using Eukitt Quick Mounting Medium (#03989, Sigma-Aldrich, St. Louis, Mo.) after which coverslip was applied. […] Bone formation rate was calculated by the following equation: (Inter-label width/Label interval)*(Labeled perimeter/Bone perimeter). At least five samples were measured from each treatment group in each study.

In the next data set the test system is TNFα, U937 cells. In words: TNFα inhibition in LPS-stimulated differentiated U937 cells. The data set is classed as cell-based. The note with it: Homo sapiens. The procedure:
Cells were differentiated to a monocyte/macrophage phenotype with phorbol 12-myristate 13-acetate (Sigma-Aldrich, St. Louis, Mo.), 20 ng/mL, overnight. […] Following recovery, the cells were scraped, counted, and plated in accordance to the experimental design prior to stimulation with LPS, as described below. U937 cells were differentiated and plated at a density of 200,000 cells/well in 96-well plates. […] Louis, Mo.) for four hours at 37° C. and with 5% CO2. Cell supernatants were collected for determination of TNFα levels using an in-house sandwich-type ELISA. Mouse anti-human TNFα monoclonal antibody (clone 28401.111) and biotinylated goat anti-human TNFα (R&D Systems, Minneapolis, Minn.) were used as the capture and detection antibodies, respectively. Streptavidin-horseradish peroxidase (HRP) (R&D Systems, Minneapolis, Minn.) and K-Blue Substrate/Red Stop (Neogen, Lexington, Ky.) were used as the detection system. Absorbance was measured at 650 nm. TNFα concentrations were interpolated from a human TNFα recombinant protein (R&D Systems, Minneapolis, Minn.) standard curve using a four parameter logistics model by Magellan 4.11 data analysis software (Tecan, Durham, N.C.). […] Vehicle was used to define the 0% inhibition control. Percent inhibition for each concentration of compound, relative to these controls, was calculated using Excel (Microsoft, Redmond, Wash.).

Where [5] appears, read: A549, 20 h, A549 cells, 1 ng/mL IL-1β, 20 hours, read-out: IL-6 IC50.

What is called ED50 is the midpoint of the dose-response relation. For orientation: IC50 means the midpoint of a concentration-inhibition curve. Broadly, the inhibition is the change of the read-out against control, counted positive when it falls. With `Cc1cnc(NC(=O)c2ccc3c(c2)CC[C@@H]2C[C@@](O)(C(F)(F)F)CC[C@@]32Cc2ccccc2)c(C)n1` [Comparator B, (4βS,7R,8αR)-4β-benzyl-N-(3,5-dimethylpyrazin-2-yl)-7-hydroxy-7-(trifluoromethyl)-4β,5,6,7,8,8α,9,10-octahydrophenanthrene-2-carboxamide], the ED50 was determined as 2.9 mg/kg in data set [1], 1.64 mg/kg in the data set with LPS-induced serum TNFα and 2.39 mg/kg with Serum osteocalcin. In addition, in data set [2] (setting [5]), the IC50 turned out to be 4 nM. Also, in data set [2], the inhibition amounted to 75.8%.

For the compound `Cc1ncccc1NC(=O)c1ccc2c(c1)CC[C@@H]1C[C@@](O)(CCC(F)(F)F)CC[C@@]21Cc1ccccc1` [Comparator C, (4βS,7R,8αR)-4β-benzyl-7-hydroxy-N-(2-methylpyridin-3-yl)-7-(3,3,3-trifluoropropyl)-4β,5,6,7,8,8α,9,10-octahydrophenanthrene-2-carboxamide], the ED50 in data set [1] amounted to 2 mg/kg; with LPS-induced serum TNFα it was 0.27 mg/kg; in the data set with Serum osteocalcin, 1.01 mg/kg. Moreover, the 50% inhibitory concentration (IC50) in data set [2] (setting [5]) was 1.1 nM. Further, in data set [2], the inhibition is 82.6%.

For `Cc1ncccc1NC(=O)c1ccc2c(c1)C(=O)C[C@@H]1C[C@@](O)(C(F)(F)F)CC[C@@]21Cc1ccccc1` [Comparator E, (4β,7R,8αS)-4β-benzyl-7-hydroxy-N-(2-methylpyridin-3-yl)-10-oxo-7-(trifluoromethyl)-4β,5,6,7,8,8α,9,10-octahydrophenanthrene-2-carboxamide], the ED50 in data set [1] is 0.5 mg/kg; with LPS-induced serum TNFα, 0.14 mg/kg; in the data set on Serum osteocalcin, 0.17 mg/kg. Moreover, in data set [2] (setting [5]), the IC50 stood at 1.1 nM. For the same compound, in data set [2], the inhibition worked out at 79.7%.

For the compound `Cc1ncccc1NC(=O)c1ccc2c(c1)[C@H](O)C[C@@H]1C[C@@](O)(C(F)(F)F)CC[C@@]21Cc1ccccc1` [Comparator F, (4βS,7R,8αR,10R)-4β-benzyl-7,10-dihydroxy-N-(2-methylpyridin-3-yl)-7-(trifluoromethyl)-4β,5,6,7,8,8α,9,10-octahydrophenanthrene-2-carboxamide], the ED50 in data set [1] was > 10 mg/kg; in the data set with LPS-induced serum TNFα, 2.11 mg/kg; in the data set on Serum osteocalcin, 1.19 mg/kg. Further, in data set [2] (setting [5]), the IC50 worked out at 7 nM. The inhibition in data set [2] stood at 83.3%.

As to `Cc1ncccc1NC(=O)c1ccc2c(c1)C=C[C@@H]1C[C@@](O)(C(F)(F)F)CC[C@@]21Cc1ccccc1` [Comparator I], the ED50 in data set [1] stood at 17 mg/kg; in the data set on LPS-induced serum TNFα, 0.73 mg/kg; with Serum osteocalcin it was 5.2 mg/kg. Also, the IC50 in data set [2] (setting [5]) came to 2.8 nM. Besides, the inhibition in data set [2] was 67.5%.

Regarding `Cc1ncc(NC(=O)c2ccc3c(c2)CC[C@@H]2C[C@@](O)(CCC(F)(F)F)CC[C@@]32Cc2ccccc2)c(C)n1` [Comparator J, (4βS,7S,8αR)-4β-benzyl-N-(2,4-dimethylpyrimidin-5-yl)-7-hydroxy-7-(3,3,3-trifluoropropyl)-4β,5,6,7,8,8α,9,10-octahydrophenanthrene-2-carboxamide], the results for the ED50 (in data set [1]; with LPS-induced serum TNFα; with Serum osteocalcin) were 3 mg/kg, 0.09 mg/kg and 0.73 mg/kg, respectively. Moreover, the IC50 in data set [2] (setting [5]) was 291 nM. For the same compound, the inhibition in data set [2] was determined as 55%.

On to `Cc1ncccc1NC(=O)c1ccc2c(c1)CC[C@@H]1C[C@@](O)(C(F)(F)F)CC[C@@]21Cc1ccccc1` [Example 1, (4βS,7R,8αR)-4β-benzyl-7-hydroxy-N-(2-methylpyridin-3-yl)-7-(trifluoromethyl)-4β,5,6,7,8,8α,9,10-octahydrophenanthrene-2-carboxamide], for which the “AUC(0-4 hr) as share of the AUC(0-24 hr) values” in data set [3] is reported as “more than 95%”.

With `C[C@]12C=CC(=O)C=C1CC[C@@H]1[C@@H]2[C@@H](O)C[C@@]2(C)[C@H]1CC[C@]2(O)C(=O)CO` [Prednisolone], the values for the ED50 (in data set [1]; in the data set on LPS-induced serum TNFα; in the data set with Serum osteocalcin) were 1.1 mg/kg, 0.9 mg/kg and 1 mg/kg, respectively. For the same compound, in data set [4], the Cortical bone formation rate (BFR) EAUC50 came out at 100 ng·h/mL. Besides, the IC50 came to 14.9 nM with TNFα, U937 cells (U-937, 4 h, U937 cells, 100 ng/mL LPS, four hours, read-out: TNFα IC50); 15.6 nM with TNFα, U937 cells (U-937, value in brackets, footnote a: additional results that were found, read-out: TNFα IC50 (nM), additional result); 4.2 nM in data set [2] (setting [5]); 4.6 nM in data set [2] (A549, value in brackets, footnote a: additional results that were found, read-out: IL-6 IC50 (nM), additional result). Besides, the inhibition in data set [2] was determined as 102%. In addition, the “AUC(0-4 hr) as share of the AUC(0-24 hr) values” in data set [3] is on record as “more than 95%”. In addition, the Serum osteocalcin (OC) EAUC50 with Serum osteocalcin (28-day repeat dose model, the 11th table) amounted to 560 ng·h/mL.
